Data set [1] relates to rats with MCAO. The data set is described as follows: Hole-board test (HBT) after MCAO. Type of data set: in vivo, Wistar rats. The method, then: (§1) A MCAO animal model was used to characterize the effects of compound 1 on the development and resolution of stroke. At the baseline, we performed the MRI and hole-board test before MCAO surgery. Once animals recovered after the surgery, we stratified them based on their background psycho-emotional status and performed a control MRI to access whether the occlusion was sufficient or not. […] From 24 h to day 7, the neurological status was assessed daily according to the neurological scale (mNSS). By the end of day 7, animals underwent MRI. In addition, MRI was performed on days 14 and 28 (Shceme 3)The hole-board test was repeated on days 10 and 24. The degree of motor function impairment, the deficit of exploratory behavior, and the recovery process were assessed in the beam walking test (BWT), which was performed twice on days 12 and 14. An open field test was carried out on days 16 and 26.
(§2) In the first experimental series, the following test systems were used: HBT (OpenScience, Russia), OFT (OpenScience), and LDT (OpenScience). The design for the second experimental series was as follows. All rat behavioral changes were evaluated during the four weeks after stroke simulation. […] General neurological disorders were assessed using the modified neurological severity score (mNSS). Motor and cognitive impairment were evaluated using the following functional tests: BWT (OpenScience), HBT (OpenScience), and OFT (OpenScience). […] In this test, motor dysfunction in all four limbs was evaluated; specifically, the number of steps, errors, and slides were counted. The overall score was calculated using the following formula: score = errors + 0.5 × slides × 100/total number of steps [47]. […]
(§3) The HBT was performed on postoperative days 10 and 24. In this test, the following parameters were assessed: orientational and motor activity (horizontal activity, arbitrary units: number of crossings; vertical activity, arbitrary units: number of head dips), anxiety level (immobility and grooming time and number of grooming and immobility events), and the number of central sector crossings. […]

The subject of data set [2] is rats with MCAO. The data set is described as follows: Open field test (OFT) after MCAO. It is filed as in vivo, Wistar rats. As for the experimental part: as §1, §2, §3
A short description of data set [3]: Reported BBB permeability. To be noted: compound 1, no reference given; own data. The source says: Table 5 Predicted permeability of ampakines in silico and in the blood–brain barrier (BBB). | column: Literature Report of BBB Permeability
Data set [4] can be described thus: Concentration of compound 1 in plasma, striatum and cortex by HPLC-MS (intact and MCAO rats). Type of data set: in vivo. Particulars: for concentration at 60 min: rat. As for the experimental part: The calculated data are consistent with the experimental data in intact animals. The concentration of compound 1 was determined in the striatum and frontal cortex by HPLC MS. Sixty minutes after the intravenous administration of compound 1, we anesthetized the rats with isoflurane. Afterward, we drained the blood from the heart, opened the chest, dissected the heart muscle, incised the left atrial appendage, and inserted an 18G needle into the right atrium. The pulmonary circulation was washed with 350 mL of 0.9% NaCl containing 1.0 mL of heparin. After the washing procedure, the rat was decapitated and the brain was removed and dissected. We determined the concentrations of compound 1 using an HPLC MS system. The concentration of compound 1 in plasma and the striatum differed by 650 times, and the concentration in plasma and the cortex differed by 630 times (Table 6).
Brain. A brain sample weighing 50 mg (± 2 mg) was placed in 2 mL tubes and 10 μL of an aqueous solution of an internal standard with a concentration of 1 μg mL^−1 was added, then 140 μL of a 1% aqueous solution of formic acid was added and homogenized. Brain samples were ground in a Precellys Evolution homogenizer using 2 mL tubes with ceramic balls at room temperature at a speed of 4500 vibrations min^−1 for 2 cycles of 90 s. After that, 400 μL of chloroform was added. The sample was shaken and centrifuged at 10,621 g for 2 min. The aqueous layer of the liquid was taken and 400 μL of chloroform was added. The sample was shaken and centrifuged at 10,621 g for 2 min. The supernatant was taken for analysis.
Plasma. A total of 10 μL of an aqueous solution of an internal standard with a concentration of 1 mg mL^−1 was added to 50 μL of plasma. A total of10 μL of formic acid and 150 μL of a 0.2% solution of formic acid in methanol was added to the solution. A total of 780 μL of deionized water was added to the resulting solution. The solution was centrifuged at 10,621 g for 2 min. The supernatant was collected and analyzed.
Analyses were performed by a Shimadzu 20 (Shimadzu, Kyoto, Japan) system consisting of HPLC coupled to triple quadrupole mass spectrometer Shimadzu 8040 (Shimadzu, Japan). The chromatographic separation was performed on Discovery C18 column 3 × 150 mm, 5 μm in a gradient mode with mobile phase components A (0.01M ammonium acetate in water) and B (acetonitrile). The gradient cycle was performed in the following way: 0–6 min 5–40% B, 6.01–10 min 40–95%, 10.01–15 min, isocratic elution with 100% B, and then returned to the initial condition. The column temperature was 60 °C. The sample injection volume was 20 μL. The autosampler temperature was 8 °C.
The electrospray ionization (ESI) source was set in positive ionization mode. Multiple reaction monitoring was used to perform mass spectrometric quantification. MS conditions: interface voltage 3,500 V ([…]), nebulizer gas (nitrogen) flow 2.5 l min^−1, drying gas (nitrogen) flow 15 L min^−1, CID gas pressure 230 kPa, DL temperature 200 °C, and heat block temperature 500 °C. High-purity argon was used as collision gas. The precursor and product ions (m/z) of target analytes were 327.10 and 174.10 for compound 1 and 236.10 and 154.15 for internal standard; collision energy was −20 V for both compounds.

The conditions of data set [5]: cited from earlier work.
Data set [6] has as its system patients with cerebral ischemia-induced short-term memory/cognitive deterioration. Particulars: after piracetam; cited from earlier work.

“And” between values parts separate entries of the source, which are not always exact repeats. Equal entries are not always repeated. Where two headings read alike, the source gives them in different places.

The values below come from PMC8541353, “A Novel Phenylpyrrolidine Derivative: Synthesis and Effect on Cognitive Functions in Rats with Experimental Ishemic Stroke” (Molecules, 2021).

On to `O=C(CN1CC(c2ccccc2)CC1=O)NCCS(=O)(=O)[O-].[K+]` (stereo not shown) [Compound 1, potassium 2-[2-(2-oxo-4-phenylpyrrolidin-1-yl)acetamido]ethane-1-sulfonate], for which, in data set [1] (day 10), the “Orientational activity (HBT)” value was “escalation”. The “Freezing time (HBT)” value in data set [1] (days 10 and 24) is “decreased”. For the same molecule, in data set [1] (days 10 and 24), the “Total locomotor activity (HBT)” value is “significantly increased”. Besides, the “Locomotor activity (OFT)” value in data set [2] is listed as “higher”. In addition, the “Immobility time (OFT) compared to the saline and piracetam groups” value in data set [2] (day 16) is given as “lower”. In addition, the “Number of crossed areas (OFT)” value in data set [2] (day 16) is “statistically significant increase”. Also, in data set [3], the “BBB Permeability (column Literature Report of BBB Permeability)” value is recorded as “Low”. In data set [4] (24 h after MCAO vs intact animals), the “Increase of BBB permeability after MCAO” value is recorded as about 10 fold. For the same molecule, the “Concentration in the brain” value in data set [4] (intact animals) is reported as 0.3 μg g^–1. Also, the Cplasma/Ccortex in data set [4] (intact animals) is 630 and 630.9 ± 98.6; in data set [4] (rats 24 h after MCAO), 37.9 ± 6.0. Also, the Cplasma/Cstriatum in data set [4] (intact animals) was 650 and 651.2 ± 52.0; in data set [4] (rats 24 h after MCAO), 89.7 ± 9.4. The concentration at 60 min was 300 ng/g in data set [4] (brain, intravenous, intact animals, read-out: Concentration in the brain); 2600 ng/g in data set [4] (brain, intravenous, rats with hemispheric stroke (24 h after MCAO), read-out: Concentration in the brain); 255000 ± 78200 ng/g in data set [4] (cortex, iv, intact animals, 60 min after intravenous administration, read-out: Ccortex); 13800 ± 3600 ng/mL in data set [4] (plasma, intravenous, rats 24 h after MCAO, read-out: Cplasma); 16100 ± 5800 ng/mL in data set [4] (plasma, iv, intact animals, 60 min after intravenous administration, read-out: Cplasma); 247000 ± 42600 ng/g in data set [4] (striatum, iv, intact animals, 60 min after intravenous administration, read-out: Cstriatum).
Take `NC(=O)CN1CCCC1=O` [Piracetam, reference compound]: in data set [5] (animals with ischemic stroke, ref 25 (Paliwal et al. 2018)), the “Increase of BBB permeability in animals with ischemic stroke” value was 3.5 fold. Besides, in data set [5], the “Literature Report of BBB Permeability” value is “Very good [21, 22]”. Besides, the “Patients who improved their memory and cognitive functions” value in data set [6] was “around 25%”.
